Consider two molecules from patent US20110144213A1, “ANHYDROUS DEPIGMENTING COMPOSITIONS COMPRISING A SOLUBILIZED PHENOLIC COMPOUND” (priority 2008, published 2011).

For data set [1] the following is noted: cited from earlier work.
A short description of data set [2]: Stability of the active agents in solvent oils and lipophilic surfactants (HPLC assay against reference substance, colour). Type of data set: physicochemical. As to conditions: for Colour: 40° C. The text has this: Stability of Hydroquinone in Solvent Oils and Lipophilic Surfactants
Assay technique by HPLC against reference substance.
The initial time (T0) is considered as 100%
The above table makes it possible to evaluate the stability of hydroquinone in the various solubilizing agents identified previously.
Stability of Rucinol in Solvent Oils and Lipophlic Surfactants
The initial time (T0) is considered as 100%.
The table below makes it possible to evaluate the stability of rucinol in the solubilizing agents identified previously.

Data set [3] is described as follows: Max. solubility of the active agents in solvent oils, lipophilic surfactants and alcoholic or glycolic solvents (HPLC). Type of data set: physicochemical. Particulars: rucinol in all the solvents tested. The text has this:
a) Solubilities and Stabilities of Hydroquinone in Solvent Oils and Lipophilic Surfactants Hydroquinone Solubilities
The above table makes it possible to identify which solvents are the most solubilizing for the active agent, for optimum selection of the ingredients of the composition. However, the choice of solvent will also be made on the basis of the results of the stability of hydroquinone in these solvents. […]
b) Solubilities and Stabilities of Rucinol in Solvent Oils and Lipophilic Surfactants […]
However, the optimum choice of solvent will also be made on the basis of the results of the stability of rucinol in these solvents.

Like-named read-outs stand apart in the source and are kept apart here.

Consider `Oc1ccc(O)cc1` [Hydroquinone, hydroquinone], for which the “incidence of the irritation” value is “relatively high” in data set [1] (10% hydroquinone concentrations), “virtually nonexistent” in data set [1] (concentration of 2%) and “reduces greatly” in data set [1] (preparations with a 5% dose). Also, the Colour entry is “Dark” in data set [2] (hydroquinone in Ethanol/water (20/80), 1 MONTH); “Dark” in data set [2] (hydroquinone in Glycerol, 1 MONTH); “Dark” in data set [2] (hydroquinone in Propylene glycol, 3 MONTHS). The “stability of hydroquinone (in words)” value was “macroscopic instability” in data set [2] (in Cremophor EL, browning that becomes pronounced over time and with temperature); “good chemical and physical stability” in data set [2] (in Crodamol DA, Arlamol E and Labrasol, macroscopic observation of the colour); “a colouration is observed” in data set [2] (in solvents of the prior art such as glycols, RT and 40° C., absence of antioxidants).
On to `CCCCc1ccc(O)cc1O` [Rucinol, 4-butylresorcinol], for which the “solubility (in words)” value in data set [3] was “very good solubility”.
